The values that follow come from US20230212171A1, “ALLOSTERIC EGFR INHIBITORS AND METHODS OF USE THEREOF” (Dana-Farber Cancer Institute, Inc., priority 2020, published 2023).

For experiment [1], the target named is EGFR mutant L858R/T790M Ba/F3 cells (Homo sapiens, UniProt P00533, T790M/L858R, cells depend on it). As to the kind of experiment: Ba/F3 cell proliferation model (Cell Titer Glo), EGFR L858R/T790M. It is filed as cell-based, murine. The following applies: single agent, 72 hours; read-out: Cell IC50 BaF3 EGFR L858R/T790M. The source says:
(§1) The EGFR mutant L858R and L858R/T790M Ba/F3 cells have been previously described (Zhou, W., et al. Nature 462, 2009, 1070-1074). All cell lines were maintained in RPMI 1640 (Cellgro; Mediatech Inc., Herndon, CA) supplemented with 10% FBS, 100 units/mL penicillin, 100 units/mL streptomycin. The EGFR I941R mutation was introduced via site directed mutagenesis using the Quick Change Site-Directed Mutagenesis kit (Stratagene; La Jolla, CA) according to the manufacturer’s instructions. All constructs were confirmed by DNA sequencing. The constructs were shuttled into the retroviral vector JP1540 using the Cre-recombination system (Agilent Technologies, Santa Clara, CA). Ba/F3 cells were then infected with retrovirus per standard protocols, as described previously (Zhou, et al, Nature 2009). Stable clones were obtained by selection in puromycin (2 µg/ml).
(§2) Growth and inhibition of growth was assessed by the Cell Titer Glo assay (Promega, Madison, WI) and was performed according to the manufacturer’s instructions. The Cell Titer Glo assay is a luminescence-based method used to determine the number of viable cells based on quantitation of the ATP present, which is directly proportional to the amount of metabolically active cells present. Ba/F3 cells of different EGFR genotypes were exposed to compounds as a single agent or in combination with 1 µg/mL cetuximab for 72 hours and the number of cells used per experiment was determined empirically as has been previously established (Zhou, et al., Nature 2009). All experimental points were set up in triplicates in 384-well plates and all experiments were repeated at least three times. […] The curves were fitted using a non-linear regression model with a sigmoidal dose response.
(Cellular ATP, detected with luciferase, serves as a proxy for viable cell number.)

A further experiment addresses EGFR L858R (Homo sapiens, UniProt P00533, L858R). The experiment can be described thus: HTRF-based EGFR biochemical assay (L858R). The following applies: enzyme 0.1 nM, ATP 100 µM, 30 min preincubation. The method, then: (§3) EGFR biochemical activity measurements were carried out using the homogeneous time-resolved fluorescence (HTRF) assay (Cisbio). Inhibitors and DMSO normalizations were first dispensed to empty black low-volume 384-well plates (Corning) with D300 digital liquid dispenser (HP). All reactions were carried out at room temperature and solutions were added to plates with a Multidrop Combi Reagent Dispenser (ThermoFisher). The reaction mixture (10 µL final volume) contained 1 µM tyrosine kinase peptide-biotin substrate and mutant EGFR in a reaction buffer (50 mM HEPES pH 7.0, 5 mM MgCl2, 1 mM MnCl2, 0.01% BSA, 2 mM TCEP, 0.1 mM NaVO4). Enzyme concentrations were adjusted to accommodate varying kinase activities (L858R 0.1 nM, L858R/T790M 0.02 nM). Enzyme reaction solution (2× concentrations, 5 µL) was added to 384-well plates containing compounds and incubated for 30 mins. Enzyme reactions were initiated with the addition of 5 µL of ATP to a final concentration of 100 µM and reacted for 20 mins. Reactions were quenched with the addition of 10 µL of phospho-tyrosine antibody-Europium(III) cryptate (1-to-180 volume ratio) and Streptavidin-XL665 (46.7 nM) in EDTA-containing detection buffer, then incubated at room temperature for 1 hour, and read with a PHERAstar plate reader (excitation = 337 nm, emission = 620 nm and 665 nm). IC50 values were determined by inhibition curves (11-point curves from 1.0 µM to 0.130 nM or 23-point curves from 1.0 µM to 0.130 pM) in triplicate with non-linear least squares fit in GraphPad Prism 7.0d.

The target of experiment [2] is EGFR mutant L858R Ba/F3 cells (Homo sapiens, UniProt P00533, L858R, cells depend on it). The experiment can be described thus: Ba/F3 cell proliferation model (Cell Titer Glo), EGFR L858R. It is filed as cell-based, murine. The following applies: single agent, 72 hours; read-out: Cell ICso BaF3 EGFR L858R.
Description: as §1, §2

The target in a further experiment is EGFR L858R/T790M (Homo sapiens, UniProt P00533, L858R/T790M). As to the kind of experiment: HTRF-based EGFR biochemical assay (L858R/T790M). The settings on record: enzyme 0.02 nM, ATP 100 µM, 30 min preincubation. As to the method:
as §3
A general note: TR-FRET usually uses a lanthanide donor and a delayed reading to cut background.

What is called IC50 is the concentration needed to halve the response being measured.

EGFR mutant L858R Ba/F3 cells, sequence (P00533 whole entry L858R): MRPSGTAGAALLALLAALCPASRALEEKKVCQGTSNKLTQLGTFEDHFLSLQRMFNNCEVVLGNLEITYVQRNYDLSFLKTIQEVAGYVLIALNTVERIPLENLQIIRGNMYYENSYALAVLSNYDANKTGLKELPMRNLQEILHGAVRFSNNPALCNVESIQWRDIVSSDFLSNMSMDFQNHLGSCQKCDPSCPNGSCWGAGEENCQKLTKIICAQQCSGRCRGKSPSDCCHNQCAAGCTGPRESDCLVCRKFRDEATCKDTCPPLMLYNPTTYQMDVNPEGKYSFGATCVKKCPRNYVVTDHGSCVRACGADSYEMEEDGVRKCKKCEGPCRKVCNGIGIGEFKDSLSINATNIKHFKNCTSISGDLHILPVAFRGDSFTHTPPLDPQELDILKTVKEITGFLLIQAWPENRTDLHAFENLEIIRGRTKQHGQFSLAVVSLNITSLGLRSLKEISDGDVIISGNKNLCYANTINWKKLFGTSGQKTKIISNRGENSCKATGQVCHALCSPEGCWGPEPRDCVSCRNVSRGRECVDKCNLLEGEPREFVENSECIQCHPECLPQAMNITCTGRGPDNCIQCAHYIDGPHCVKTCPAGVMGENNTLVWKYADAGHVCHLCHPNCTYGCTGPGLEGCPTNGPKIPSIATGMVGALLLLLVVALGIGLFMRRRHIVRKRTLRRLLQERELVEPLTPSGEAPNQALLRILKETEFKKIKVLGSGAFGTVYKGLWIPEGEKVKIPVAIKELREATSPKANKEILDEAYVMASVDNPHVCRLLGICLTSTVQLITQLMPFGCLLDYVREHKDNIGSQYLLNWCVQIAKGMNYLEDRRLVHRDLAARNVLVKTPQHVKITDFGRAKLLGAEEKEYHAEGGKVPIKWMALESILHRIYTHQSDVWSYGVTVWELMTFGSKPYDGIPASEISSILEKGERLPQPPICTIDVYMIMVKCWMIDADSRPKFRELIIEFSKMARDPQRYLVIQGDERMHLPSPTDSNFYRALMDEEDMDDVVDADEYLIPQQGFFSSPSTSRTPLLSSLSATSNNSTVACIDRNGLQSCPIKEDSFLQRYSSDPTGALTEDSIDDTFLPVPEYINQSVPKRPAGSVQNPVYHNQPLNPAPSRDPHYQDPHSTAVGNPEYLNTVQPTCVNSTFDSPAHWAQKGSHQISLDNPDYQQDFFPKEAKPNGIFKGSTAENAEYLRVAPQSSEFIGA
EGFR L858R/T790M, sequence (P00533 25-1210 T790M/L858R): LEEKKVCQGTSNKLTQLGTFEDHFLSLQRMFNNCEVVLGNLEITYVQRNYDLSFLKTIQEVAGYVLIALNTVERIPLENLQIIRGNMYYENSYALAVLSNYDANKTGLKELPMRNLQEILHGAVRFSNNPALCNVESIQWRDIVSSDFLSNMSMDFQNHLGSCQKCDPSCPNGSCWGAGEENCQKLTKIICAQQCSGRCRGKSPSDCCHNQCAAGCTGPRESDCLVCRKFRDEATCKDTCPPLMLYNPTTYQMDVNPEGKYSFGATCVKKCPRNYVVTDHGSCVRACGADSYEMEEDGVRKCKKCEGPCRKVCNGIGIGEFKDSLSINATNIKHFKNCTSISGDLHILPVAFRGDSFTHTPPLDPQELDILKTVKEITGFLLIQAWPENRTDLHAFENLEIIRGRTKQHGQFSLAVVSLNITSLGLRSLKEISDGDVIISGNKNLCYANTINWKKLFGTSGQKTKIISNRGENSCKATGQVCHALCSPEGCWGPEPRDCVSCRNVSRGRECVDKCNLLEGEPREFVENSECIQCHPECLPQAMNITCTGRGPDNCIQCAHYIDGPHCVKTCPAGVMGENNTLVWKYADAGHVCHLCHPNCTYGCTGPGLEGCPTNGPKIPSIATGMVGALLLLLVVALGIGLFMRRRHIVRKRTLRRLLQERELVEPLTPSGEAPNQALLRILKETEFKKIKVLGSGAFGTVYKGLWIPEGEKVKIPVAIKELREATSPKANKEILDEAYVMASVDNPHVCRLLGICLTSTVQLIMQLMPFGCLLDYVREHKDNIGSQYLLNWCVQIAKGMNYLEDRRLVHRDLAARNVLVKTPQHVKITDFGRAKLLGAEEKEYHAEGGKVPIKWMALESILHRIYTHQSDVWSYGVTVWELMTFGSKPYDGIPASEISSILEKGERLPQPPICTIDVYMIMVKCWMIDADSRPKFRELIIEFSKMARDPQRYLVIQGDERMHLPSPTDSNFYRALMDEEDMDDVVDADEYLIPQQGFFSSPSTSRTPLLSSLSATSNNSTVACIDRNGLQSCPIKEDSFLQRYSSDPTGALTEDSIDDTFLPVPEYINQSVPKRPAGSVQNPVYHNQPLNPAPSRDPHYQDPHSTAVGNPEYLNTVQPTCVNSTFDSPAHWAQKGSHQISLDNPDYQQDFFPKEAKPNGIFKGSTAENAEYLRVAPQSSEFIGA
EGFR mutant L858R/T790M Ba/F3 cells, sequence (P00533 whole entry T790M/L858R): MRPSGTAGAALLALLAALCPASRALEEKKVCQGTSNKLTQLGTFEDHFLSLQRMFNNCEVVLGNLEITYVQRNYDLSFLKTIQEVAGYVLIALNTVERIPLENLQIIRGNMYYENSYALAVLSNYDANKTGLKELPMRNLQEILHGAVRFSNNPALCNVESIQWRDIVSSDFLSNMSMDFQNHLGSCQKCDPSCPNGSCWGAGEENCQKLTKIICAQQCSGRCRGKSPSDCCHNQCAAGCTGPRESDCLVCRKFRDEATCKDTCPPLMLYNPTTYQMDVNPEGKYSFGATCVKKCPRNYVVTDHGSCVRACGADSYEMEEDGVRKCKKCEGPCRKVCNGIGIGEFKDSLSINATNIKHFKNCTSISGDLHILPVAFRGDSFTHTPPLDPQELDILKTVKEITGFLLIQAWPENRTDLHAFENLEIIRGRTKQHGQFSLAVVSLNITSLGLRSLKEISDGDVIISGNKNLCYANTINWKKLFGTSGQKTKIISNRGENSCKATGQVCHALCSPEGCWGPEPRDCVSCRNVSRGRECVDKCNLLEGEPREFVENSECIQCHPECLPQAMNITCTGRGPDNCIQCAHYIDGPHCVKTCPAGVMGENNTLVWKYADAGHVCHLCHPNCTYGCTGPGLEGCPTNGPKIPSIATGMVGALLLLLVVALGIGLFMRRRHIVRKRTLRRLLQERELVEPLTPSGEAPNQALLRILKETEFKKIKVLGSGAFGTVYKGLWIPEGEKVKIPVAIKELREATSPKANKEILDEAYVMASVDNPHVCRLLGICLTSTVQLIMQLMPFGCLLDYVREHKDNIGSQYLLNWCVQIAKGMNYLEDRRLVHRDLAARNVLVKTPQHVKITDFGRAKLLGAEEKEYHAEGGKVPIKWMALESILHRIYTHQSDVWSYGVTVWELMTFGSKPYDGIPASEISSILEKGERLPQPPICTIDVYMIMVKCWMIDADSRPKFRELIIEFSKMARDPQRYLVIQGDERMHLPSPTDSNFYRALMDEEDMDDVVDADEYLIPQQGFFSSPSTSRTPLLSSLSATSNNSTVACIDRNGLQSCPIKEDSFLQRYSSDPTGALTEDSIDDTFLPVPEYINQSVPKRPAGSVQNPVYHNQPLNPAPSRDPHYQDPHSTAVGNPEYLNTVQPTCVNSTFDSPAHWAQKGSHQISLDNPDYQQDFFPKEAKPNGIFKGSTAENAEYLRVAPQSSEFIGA
EGFR L858R, sequence (P00533 25-1210 L858R): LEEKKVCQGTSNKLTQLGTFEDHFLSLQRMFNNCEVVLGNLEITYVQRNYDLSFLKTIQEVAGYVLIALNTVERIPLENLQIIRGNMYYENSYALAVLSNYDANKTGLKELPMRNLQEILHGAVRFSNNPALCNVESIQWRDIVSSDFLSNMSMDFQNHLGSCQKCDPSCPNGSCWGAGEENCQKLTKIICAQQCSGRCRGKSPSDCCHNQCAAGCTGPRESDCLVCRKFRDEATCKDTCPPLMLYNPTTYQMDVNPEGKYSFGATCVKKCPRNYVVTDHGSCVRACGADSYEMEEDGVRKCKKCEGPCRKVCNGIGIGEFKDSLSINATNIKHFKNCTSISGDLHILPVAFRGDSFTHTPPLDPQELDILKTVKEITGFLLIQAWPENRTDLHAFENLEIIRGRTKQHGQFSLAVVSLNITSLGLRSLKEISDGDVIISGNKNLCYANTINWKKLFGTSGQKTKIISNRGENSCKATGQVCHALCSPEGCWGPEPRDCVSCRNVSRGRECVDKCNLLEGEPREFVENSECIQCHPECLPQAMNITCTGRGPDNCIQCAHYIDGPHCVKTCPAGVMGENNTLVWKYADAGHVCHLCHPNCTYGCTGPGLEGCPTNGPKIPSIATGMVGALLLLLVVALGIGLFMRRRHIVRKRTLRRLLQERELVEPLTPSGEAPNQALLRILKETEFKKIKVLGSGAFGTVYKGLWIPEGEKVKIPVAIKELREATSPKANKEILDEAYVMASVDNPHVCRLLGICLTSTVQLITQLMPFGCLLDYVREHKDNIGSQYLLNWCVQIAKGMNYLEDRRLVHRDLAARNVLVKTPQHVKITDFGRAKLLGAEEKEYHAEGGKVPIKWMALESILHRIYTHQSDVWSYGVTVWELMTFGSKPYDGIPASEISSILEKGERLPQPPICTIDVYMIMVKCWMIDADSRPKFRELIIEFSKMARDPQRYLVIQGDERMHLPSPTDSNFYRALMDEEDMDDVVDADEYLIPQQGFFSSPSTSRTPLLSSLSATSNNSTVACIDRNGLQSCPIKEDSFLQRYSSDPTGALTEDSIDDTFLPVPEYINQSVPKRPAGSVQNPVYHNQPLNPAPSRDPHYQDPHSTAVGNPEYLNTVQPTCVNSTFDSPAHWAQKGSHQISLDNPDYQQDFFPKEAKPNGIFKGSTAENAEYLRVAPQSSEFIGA

For `CN1CCC(c2ccc(-c3ccc4c(c3)CC(=O)N(C(c3nc5ccccc5[nH]3)c3cc(F)ccc3O)C4)cc2)CC1` (stereo not shown) [Compound 018, 2-[1H-benzimidazol-2-yl-(5-fluoro-2-hydroxy-phenyl)methyl]-6-[4-(1-methyl-4-piperidyl)phenyl]-1,4-dihydroisoquinolin-3-one], the GI50 is 480 nM in experiment [1] and 530 nM in experiment [2]. For the same molecule, the half-inhibitory concentration (IC50) was determined as 6 nM on EGFR L858R and 8 nM against EGFR L858R/T790M.
